According to patent US11414385B2, “Compounds and methods for treating, detecting, and identifying compounds to treat apicomplexan parasitic diseases” (The University of Chicago, priority 2015, dated 2022):
Converted amounts (≈) assume the structure as drawn. Where two headings read alike, the source gives them in different places.

Experiments:
[1] = system: T. gondii tachyzoites (RH-YFP strain); assay: In vitro challenge assay for Toxoplasma tachyzoites (RH-YFP in HFF, fluorescence); assay type: cell-based, Toxoplasma gondii
Procedure, shortened: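 Confluent HFF monolayers infected with 3200 RH-YFP tachyzoites for 1-2 h, then compounds added (screen at 10 μM-10 nM; follow-up 1 μM-31.25 nM) and incubated 72 h at 37 °C. YFP fluorescence served as the measure of parasite burden; IC50 by graphical analysis.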

[2] = Microsomal metabolic stability, mouse; assay type: in vitro ADME; details: for half-life: mouse, liver microsomes
[3] = Aqueous kinetic solubility pH 7.4; assay type: physicochemical; details: for solubility kinetic: PBS pH 7.4
[4] = Toxoplasma gondii, RH-YFP, read-out: Tachy IC50
[5] = PBS, pH 7.4, aqueous buffer, kinetic from dmso stock

Molecule Cc1[nH]c2c(c(=O)c1-c1ccc(Oc3ccc(OC(F)(F)F)cc3)cc1)CCCC2 [JAG21, 2-methyl-3-(4-(4-(trifluoromethoxy)phenoxy)phenyl)-5,6,7,8-tetrahydroquinolin-4(1H)-one] has an IC50 ([1]; Toxoplasma gondii, read-out: IC50 against tachyzoites / active infection) of 0.188 µM, an IC50 [1, 4] of 0.09 µM and an IC90 ([1]; Toxoplasma gondii, read-out: IC 90 against Toxoplasma gondii tachyzoites) of under 0.125 µM. The “Mouse microsomal stability T1/2” value [2] was 101 min and the solubility kinetic [3, 5] was 7 µM (≈ 2.91 µg/mL).
In the case of Cc1[nH]c2c(c(=O)c1-c1ccc(Oc3ccccc3)cc1)CCCC2 [MJM170], the IC50 ([1]; Toxoplasma gondii, RH-YFP strain, read-out: T. gondii Tachyzoite IC50) is reported as 0.03 µM, the IC50 [1, 4] is reported as 0.03 µM and the “reduction of RH YFP tachyzoites in tissue culture” value ([1]; low nanoM levels) is reported as “markedly reduces RH YFP tachyzoites”. For the same molecule, the “Mouse microsomal stability T1/2” value [2] was 21.0 min, the half-life ([2]; read-out: Mouse liver microsomes T1/2) was 21 min and the half-life ([2]; read-out: Mouse microsomal stability T1/2) was 20 min. The solubility kinetic [3] was 1.97 µM (≈ 0.653 µg/mL), the solubility kinetic [3, 5] was 2 µM (≈ 0.663 µg/mL) and the solubility ([3]; aqueous buffer, kinetic from dmso stock, 100 mM Phosphate Buffer (pH 7.4)) was 1.97 µM (≈ 0.653 µg/mL). The “improved aqueous kinetic solubility (pH 7.4) over ELQ 271” value ([3]; relative to ELQ 271) was 10 fold.
